According to patent US20140004062A1, “COMPOSITION INCLUDING 3-BROMO-4,5-DIHYDROXYBENZALDEHYDE COMPOUND AS EFFECTIVE COMPONENT FOR PROTECTING AND TREATING SKIN CELL AGANIST ULTRAVIOLET” (Jeju National University Industry-Academic Cooperation …, priority 2012, published 2014):

Tests used:
[1] = DPPH radical removal ability; assay type: physicochemical; conditions: 3 h
Procedure: BDB at a concentration of 10, 20, 30 μM and 2 mM NAC were added to a 1×10^−4 M solution of DPPH in methanol. The resulting reaction mixture was shaken vigorously. After 3 h, the amount of unreacted DPPH was measured at 520 nm using a spectrophotometer.

HaCaT keratinocytes [2] = assay: Intracellular ROS induced by UVB, DCF-DA method; assay type: cell-based, human; conditions: UVB 30 mJ/cm^2, 24 h
Procedure: (§1) The DCF-DA method was used to detect intracellular ROS levels in HaCaT keratinocytes generated by either H2O2 or UVB radiation. For the detection of ROS in H2O2-treated cells, cells were seeded at a density of 1.5×10^5 cells/well. Sixteen hours after plating, cells were treated with BDB at a concentration of 10, 20, 30 μM and 2 mM NAC. After 30 min, H2O2 (1 mM) was added to the plate. Cells were incubated for an additional 30 min at 37° C., and DCF-DA solution (25 μM) was then added. Ten minutes after the addition of DCF-DA, the fluorescence of 2′,7′-dichlorofluorescein (DCF) was detected and quantified using a PerkinElmer LS-5B spectrofluorometer (PerkinElmer, Waltham, Mass., USA). For the detection of ROS in UVB-exposed cells, cells were treated with BDB as above. After one hour, cells were exposed to UVB radiation at a dose of 30 mJ/cm^2. […] Cells were incubated for an additional 24 h at 37° C., DCF-DA solution (25 μM) was added and detected as above.

HaCaT keratinocytes [3] = assay: Intracellular ROS induced by H2O2, DCF-DA method; assay type: cell-based, human; conditions: H2O2 1 mM
Procedure: as §1

[4] = Detection of hydroxyl radical, Fenton reaction, ESR spectrometry; assay type: physicochemical; conditions: BDB 30 μM; signal without BDB 3851
Procedure: The hydroxyl radical was generated by the Fenton reaction (H2O2+FeSO4) and then reacted with DMPO. The resultant DMPO/.OH adducts were detected using an ESR spectrometer. The ESR spectrum was recorded 2.5 min after a phosphate buffer solution (pH 7.4) was mixed with 0.2 mL each of 0.3 M DMPO, 10 mM FeSO4, 10 mM H2O2, and BDB (30 μM). The ESR spectrometer parameters were set at a magnetic field of 336 mT, power of 1.00 mW, frequency of 9.4380 GHz, modulation amplitude of 0.2 mT, gain of 200, scan time of 0.5 min, scan width of 10 mT, time constant of 0.03 sec, and temperature of 25° C.

[5] = Detection of superoxide anion, xanthine/xanthine oxidase system, ESR spectrometry; assay type: physicochemical; conditions: BDB 30 μM; signal without BDB 2765
Procedure: The superoxide anion was produced via the xanthine/xanthine oxidase system and then reacted with a nitrone spin trap, DMPO. The DMPO/.OOH adducts were detected using a JES-FA electron spin resonance (ESR) spectrometer (JEOL, Tokyo, Japan). Briefly, ESR signaling was recorded 5 min after 20 μl of xanthine oxidase (0.25 U/mL) was mixed with 20 μl each of xanthine (5 mM), DMPO (1.5 M) and BDB (30 μM). The ESR spectrometer parameters were set at a magnetic field of 336 mT, power of 1.00 mW, frequency of 9.4380 GHz, modulation amplitude of 0.2 mT, gain of 500, scan time of 0.5 min, scan width of 10 mT, time constant of 0.03 sec, and temperature of 25° C.

HaCaT cells [6] = assay: Sub-G1 hypodiploid cells, flow cytometry; assay type: cell-based, human; conditions: BDB 30 μM, UVB 1 h later, 24 h; UVB alone 17%, no UVB 1%
Procedure: Flow cytometry was performed in order to determine the apoptotic sub-G1 hypodiploid cells. Cells were treated with BDB at a concentration of 30 μM and exposed to UVB radiation 1 h later. Cells were incubated for an additional 24 h at 37° C. Cells were harvested, and fixed in 1 mL of 70% ethanol for 30 min at 4° C. Cells were washed twice with PBS, and then incubated for 30 min in the dark at 37° C. in 1 mL of PBS containing 100 μg propidium iodide and 100 μg RNase A. Flow cytometric analysis was performed using a FACS Calibur flow cytometer (Becton Dickinson, Mountain View, Calif., USA). Sub-G1 hypodiploid cells were assessed based on the histograms generated using the computer programs, Cell Quest and Mod-Fit.

HaCaT cells [7] = assay: Comet assay, oxidative DNA damage; assay type: cell-based, human; conditions: UVB-exposed cells treated with BDB; UVB alone 37%
Procedure: The degree of oxidative DNA damage was determined in a comet assay. Cell suspension was mixed with 75 μL of 0.5% low melting agarose (LMA) at 39° C. and the mixture was spread on a fully frosted microscopic slide pre-coated with 200 μL of 1% normal melting agarose (NMA). After solidification of the agarose, the slide was covered with another 75 μl of 0.5% LMA and then immersed in a lysis solution (2.5 M NaCl, 100 mM Na-EDTA, 10 mM Tris, 1% Trion X-100 and 10% DMSO, pH 10) for 1 h at 4° C. The slides were then placed in a gel-electrophoresis apparatus containing 300 mM NaOH and 10 mM Na-EDTA (pH 13) for 40 min to allow for DNA unwinding and the expression of the alkali-labile damage. An electrical field was then applied (300 mA, 25 V) for 20 min at 4° C. to draw the negatively charged DNA towards the anode. The slides were washed three times for 5 min at 4° C. in a neutralizing buffer (0.4 M Tris, pH 7.5), stained with 75 μL of propidium iodide (20 μg/mL) and observed using a fluorescence microscope and an image analyzer (Kinetic Imaging, Komet 5.5, UK). The percentage of total fluorescence in the DNA tails and the tail length of 50 cells per slide were recorded.

[8] = system: hematopoietic necrosis virus; conditions: cited from earlier work
HaCaT cells [9] = assay: Cytoplasmic histone-associated DNA fragmentation kit; assay type: cell-based, human; conditions: UVB-irradiated cells treated with BDB
Procedure: Cellular DNA fragmentation was assessed by analyzing the extent of cytoplasmic histone-associated DNA fragmentation using a kit from Roche Diagnostics (Portland, Oreg., USA) according to the manufacturer's instructions. A cytoplasmic histone-associated DNA fragmentation was increased in UVB-irradiated cells as compared with control cells. The level of DNA fragmentation was decreased in UVB-irradiated cells that were treated with BDB (see FIG. 4c).

HaCaT cells [10] = assay: Lipid peroxidation, DPPP fluorescent probe; assay type: cell-based, human; conditions: UVB-irradiated cells treated with BDB
Procedure: (§2) A cell was exposed to UVB, and then after 24 hours, effects of BDB in inhibiting the cell membrane lipid peroxidation, a protein modification, and a cell DNA damage of UVB-irradiated cell was observed. Lipid peroxidation was assayed by the determination of 8-isoprostane levels in the culture medium. A commercial enzyme immunoassay (Cayman Chemical, Ann Arbor, Mich., USA) was employed according to the manufacturer's instructions. Lipid peroxidation was also estimated using a fluorescent probe, DPPP. Cells were incubated with 5 μM DPPP for 15 min in the dark and then exposed to UVB. DPPP fluorescence image was captured using a Zeiss Axiovert 200 inverted microscope at an excitation wavelength of 351 nm and an emission wavelength of 380 nm and quantified.

HaCaT cells [11] = assay: Protein carbonyl formation ELISA; assay type: cell-based, human; conditions: UVB-irradiated cells treated with BDB
Procedure: The amount of carbonyl formation in protein was determined using an Oxiselect™ protein carbonyl ELISA kit purchased from Cell Biolabs (San Diego, Calif., USA) according to the manufacturer's instructions.

[12] = UVB absorption analysis, ultraviolet/visible spectrophotometer; assay type: physicochemical
Procedure: To study the UVB absorption spectra of BDB, which was diluted in DMSO at a ratio 1:500 (v/v), it was scanned by UV at 200-500 nm using Biochrom Libra S22 ultraviolet/visible spectrophotometer.

HaCaT cells [13] = assay: MTT assay, viability of UVB-exposed HaCaT cells; assay type: cell-based; conditions: Homo sapiens, light or radiation study, UVB 1 h later, 24 h, untreated UVB cells 65%, read-out: viability of the cell exposed to UVB
Procedure: (§3) Human keratinocytes (HaCaT cells) were obtained from the Amore Pacific Company (Gyeonggi-do, Republic of Korea). Cells were maintained at 37° C. in an incubator with a humidified atmosphere of 5% CO2. Cells were cultured in Dulbecco's modified Eagle's medium containing 10% heat-inactivated fetal calf serum, streptomycin (100 μg/mL) and penicillin (100 unit/mL).
(§4) The effect of BDB on the viability of HaCaT cells was assessed as follows. Cells were seeded in a 96-well plate at a density of 1×10^5 cells/mL. Sixteen hours after plating, BDB was added at a concentration of at 10, 20, 30, 40, and 50 μM. To evaluate the ability of BDB to protect keratinocytes against UVB-exposure, BDB was added at a concentration of 10, and 30 μM, and cells were exposed to UVB radiation one hour later and incubated at 37° C. for 24 h. Fifty microliter of MTT stock solution (2 mg/mL) was added to each well to yield a total reaction volume of 200 μl. After incubating the cells for 4 h, the plate was centrifuged at 800×g for 5 min, and the supernatants were aspirated. The formazan crystals in each well were dissolved in dimethylsulfoxide (150 μl), and the absorbance at 540 nm was read on a scanning multi-well spectrophotometer.

HaCaT cells [14] = assay: MTT assay, viability of HaCaT cells treated with BDB; assay type: cell-based, human; conditions: up to the concentration of 30 μM; tested at 10-50 μM
Procedure: as §3, §4

HaCaT cells [15] = assay: Lipid peroxidation, 8-isoprostane enzyme immunoassay; assay type: cell-based, human; conditions: UVB-exposed cells treated with BDB, 24 h; UVB alone 3.1 pg/mg
Procedure: as §2

[16] = system: infectious pancreatic necrosis virus; conditions: cited from earlier work
HaCaT cells [17] = assay: Nuclear staining with Hoechst 33342, apoptotic bodies; assay type: cell-based, human; conditions: BDB 30 μM, UVB 1 h later, 24 h; UVB alone 16
Procedure: Cells were treated with BDB at a concentration of 30 μM and exposed to UVB radiation 1 h later. Cells were incubated for an additional 24 h at 37° C. Hoechst 33342 (1.5 μL of a 10 mg/mL stock), a DNA-specific fluorescent dye, was added to each well, and the cells were incubated for 10 min at 37° C. The stained cells were visualized under a fluorescence microscope equipped with a CoolSNAP-Pro color digital camera. The degree of nuclear condensation was evaluated, and the apoptotic cells were quantified.

[18] = UV/visible scan 200 nm to 500 nm

## CC(=O)N[C@@H](CS)C(=O)O [NAC, N-acetyl cysteine, reference compound]
[1]; 2 mM, positive control
  DPPH radical scavenged: 89%
HaCaT keratinocytes [2]; 2 mM
  intracellular ROS induced by UVB removed: 22%
HaCaT keratinocytes [3]; 2 mM
  intracellular ROS induced by H2O2 removed: 80%

## O=Cc1cc(O)c(O)c(Br)c1 [BDB, 3-Bromo-4,5-dihydroxybenzaldehyde]
[4]
  hydroxyl radical signal (ESR, DMPO/.OH adducts): 3002
[5]
  superoxide anion signal (ESR, DMPO/.OOH adducts): 2063
HaCaT cells [6]
  apoptotic sub-G1 DNA: 8%
HaCaT cells [7]
  ratio of DNA in the tail (comet assay): 18%
[8]
  antiviral effect: antiviral effect
HaCaT cells [9]
  level of cytoplasmic histone-associated DNA fragmentation: decreased
HaCaT cells [10]
  DPPP fluorescence (lipid peroxidation): exhibited the fluorescence in the more small range
[1]; 10 μM, 1×10^−4 M DPPH in methanol
  DPPH radical scavenged: 6%
[1]; 20 μM, 1×10^−4 M DPPH in methanol
  DPPH radical scavenged: 21%
[1]; 30 μM, 1×10^−4 M DPPH in methanol
  DPPH radical scavenged: 25%
HaCaT cells [11]
  carbonyl formation induced by UVB (protein carbonyl level): inhibited
HaCaT keratinocytes [2]; 10 μM
  intracellular ROS induced by UVB removed: 17%
HaCaT keratinocytes [2]; 20 μM
  intracellular ROS induced by UVB removed: 22%
HaCaT keratinocytes [2]; 30 μM
  intracellular ROS induced by UVB removed: 23%
[12]; [18]
  absorption peak 1 position: 288 nm
  absorption peak 2 position: 357 nm
[12]; diluted in DMSO 1:500 (v/v), scanned at 200-500 nm
  UVB absorption ability: exhibited the absorption ability at 280 to 320 nm
HaCaT cells [13]; BDB 10 μM
  viability at 10 µM: 73%
HaCaT cells [13]; BDB 20 μM
  viability at 20 µM: 73%
HaCaT cells [13]; BDB 30 μM
  viability at 30 µM: 77%
HaCaT cells [14]
  toxicity on human HaCaT keratinocyte (cell viability, MTT): does not exhibit toxicity
HaCaT cells [15]
  8-isoprostane level (lipid peroxidation): 1.9 pg/mg
[16]
  antiviral effect: antiviral effect
HaCaT cells [17]
  Apoptotic Index (nuclear segments, Hoechst 33342): 9
HaCaT keratinocytes [3]; 10 μM
  intracellular ROS induced by H2O2 removed: 64%
HaCaT keratinocytes [3]; 20 μM
  intracellular ROS induced by H2O2 removed: 67%
HaCaT keratinocytes [3]; 30 μM
  intracellular ROS induced by H2O2 removed: 70%
